According to ChEMBL document CHEMBL1122100, “Pyridoquinoxaline N-oxides. 2. Synthesis and antibacterial activity of tricyclic lactams” (1982):
In brackets after ≈: the same amount, converted by molar mass.

Legend:
Type in all cases: functional
Escherichia coli [1] = assay: Tested in vitro for the minimum inhibitory concentration (MIC) against Escherichia coli
Salmonella enterica [2] = assay: Tested in vivo for the antibacterial activity against Salmonella choleraesuis after oral administration of 25 mg/kg in mice
Salmonella enterica [3] = assay: Tested in vivo for the antibacterial activity against Salmonella choleraesuis after sc administration of 25 mg/kg in mice; settings: route subcutaneous
Salmonella enterica [4] = assay: Tested in vitro for the minimum inhibitory concentration (MIC) against Salmonella choleraesuis
Streptococcus pyogenes = assay: Tested in vitro for the minimum inhibitory concentration (MIC) against Strep. pyogenes
Pasteurella multocida [5] = assay: Tested in vitro for the minimum inhibitory concentration (MIC) against Pasteurella multocida
Escherichia coli [6] = assay: Tested in vivo for the antibacterial activity against Escherichia coli after oral administration in mice; settings: read-out: PD50
Escherichia coli [7] = assay: Tested in vivo for the antibacterial activity against Escherichia coli after sc administration in mice; settings: read-out: PD50
Pasteurella multocida [8] = assay: Tested in vivo for the antibacterial activity against Pasteurella multocida after oral administration in mice; settings: read-out: PD50
Pasteurella multocida [9] = assay: Tested in vivo for the antibacterial activity against Pasteurella multocida after sc administration in mice; settings: read-out: PD50
Salmonella enterica [10] = assay: Tested in vivo for the antibacterial activity against Salmonella choleraesuis after sc administration in mice; settings: read-out: PD50
Salmonella enterica [11] = assay: Tested in vivo for the antibacterial activity against Salmonella choleraesuis after oral administration in mice; settings: read-out: PD50

Row | SMILES | MIC (Escherichia coli [1]) | Protection (Salmonella enterica [2]) | Protection (Salmonella enterica [3]) | MIC (Salmonella enterica [4]) | MIC (Streptococcus pyogenes) | MIC (Pasteurella multocida [5]) | ED50 (Escherichia coli [6]) | ED50 (Escherichia coli [7]) | ED50 (Pasteurella multocida [8]) | ED50 (Pasteurella multocida [9]) | ED50 (Salmonella enterica [10]) | ED50 (Salmonella enterica [11])
1 | COCCN1CCc2c([n+]([O-])c3ccccc3[n+]2[O-])C1=O | 1.56 µg/mL (≈ 5.39 µM) | 60% | 90% | 3.12 µg/mL (≈ 10.8 µM) | 0.78 µg/mL (≈ 2.7 µM) | 3.12 µg/mL (≈ 10.8 µM) |  |  |  |  |  | 
2 | C=CCN1CCc2c([n+]([O-])c3ccccc3[n+]2[O-])C1=O | 3.12 µg/mL (≈ 11.5 µM) | 0% | 30% | 1.56 µg/mL (≈ 5.75 µM) | 0.78 µg/mL (≈ 2.88 µM) | 6.25 µg/mL (≈ 23 µM) |  |  |  |  |  | 
3 | CN1CCc2c([n+]([O-])c3ccccc3[n+]2[O-])C1=O | 0.78 µg/mL (≈ 3.18 µM) | 100% | 100% | 1.56 µg/mL (≈ 6.36 µM) | 1.56 µg/mL (≈ 6.36 µM) | 1.56 µg/mL (≈ 6.36 µM) | 8.53 mg/kg | 6.39 mg/kg | 4.7 mg/kg | 3.8 mg/kg | 2.96 mg/kg | 5.1 mg/kg
4 | O=C1c2c([n+]([O-])c3ccccc3[n+]2[O-])CCN1C1CCCCC1 | 50 µg/mL (≈ 160 µM) | 0% | 0% | 50 µg/mL (≈ 160 µM) | 3.12 µg/mL (≈ 9.96 µM) | 25 µg/mL (≈ 79.8 µM) |  |  |  |  |  | 
5 | O=C1c2c([n+]([O-])c3ccccc3[n+]2[O-])CCN1CCN1CCCCC1 | 3.12 µg/mL (≈ 9.11 µM) | 0% | 30% | 1.56 µg/mL (≈ 4.56 µM) | < 0.39 µg/mL | 25 µg/mL (≈ 73 µM) |  |  |  |  |  | 
6 | O=C1NCCc2c1[n+]([O-])c1ccccc1[n+]2[O-] | 1.56 µg/mL (≈ 6.75 µM) | 0% | 80% | 1.56 µg/mL (≈ 6.75 µM) | 1.56 µg/mL (≈ 6.75 µM) | < 0.39 µg/mL |  |  |  |  |  | 
7 | CCN1CCc2c([n+]([O-])c3ccccc3[n+]2[O-])C1=O | 3.12 µg/mL (≈ 12 µM) | 50% | 70% | 1.56 µg/mL (≈ 6.02 µM) | 1.56 µg/mL (≈ 6.02 µM) | 6.25 µg/mL (≈ 24.1 µM) |  |  |  |  |  | 
8 | O=C1c2c([n+]([O-])c3ccccc3[n+]2[O-])CCN1CCO | 12.5 µg/mL (≈ 45.4 µM) | 0% | 0% | 12.5 µg/mL (≈ 45.4 µM) | 6.25 µg/mL (≈ 22.7 µM) | 12.5 µg/mL (≈ 45.4 µM) |  |  |  |  |  | 
9 | COC(=O)N/N=C/c1c[n+]([O-])c2ccccc2[n+]1[O-] [CARBADOX] | 0.39 µg/mL (≈ 1.49 µM) | 100% | 100% | 0.19 µg/mL (≈ 0.725 µM) | 0.19 µg/mL (≈ 0.725 µM) | 0.78 µg/mL (≈ 2.97 µM) | 5.3 mg/kg | 6.44 mg/kg | 6.14 mg/kg | 4.05 mg/kg | 5.44 mg/kg | 4.47 mg/kg
